# Reference: publication PMC10206600, “Two Distinct Thermodynamic Gradients for Cellular Metalation of Vitamin B12” (JACS Au, 2023)
# Molecular target: T1, CobNST (Rhodobacter capsulatus, UniProt D5AV09)
# T1 construct: gene cobN; recombinant from E. coli BL21(DE3) pLysS; N-terminal 6xHis-tag and thrombin site on CobN (pET14b) and CobS (pET3a), CobT untagged, CobST copurified; 13 subunits; with Aerobic cobaltochelatase subunit CobS; Aerobic cobaltochelatase subunit CobT
# T1 sequence (D5AV09 1-1085): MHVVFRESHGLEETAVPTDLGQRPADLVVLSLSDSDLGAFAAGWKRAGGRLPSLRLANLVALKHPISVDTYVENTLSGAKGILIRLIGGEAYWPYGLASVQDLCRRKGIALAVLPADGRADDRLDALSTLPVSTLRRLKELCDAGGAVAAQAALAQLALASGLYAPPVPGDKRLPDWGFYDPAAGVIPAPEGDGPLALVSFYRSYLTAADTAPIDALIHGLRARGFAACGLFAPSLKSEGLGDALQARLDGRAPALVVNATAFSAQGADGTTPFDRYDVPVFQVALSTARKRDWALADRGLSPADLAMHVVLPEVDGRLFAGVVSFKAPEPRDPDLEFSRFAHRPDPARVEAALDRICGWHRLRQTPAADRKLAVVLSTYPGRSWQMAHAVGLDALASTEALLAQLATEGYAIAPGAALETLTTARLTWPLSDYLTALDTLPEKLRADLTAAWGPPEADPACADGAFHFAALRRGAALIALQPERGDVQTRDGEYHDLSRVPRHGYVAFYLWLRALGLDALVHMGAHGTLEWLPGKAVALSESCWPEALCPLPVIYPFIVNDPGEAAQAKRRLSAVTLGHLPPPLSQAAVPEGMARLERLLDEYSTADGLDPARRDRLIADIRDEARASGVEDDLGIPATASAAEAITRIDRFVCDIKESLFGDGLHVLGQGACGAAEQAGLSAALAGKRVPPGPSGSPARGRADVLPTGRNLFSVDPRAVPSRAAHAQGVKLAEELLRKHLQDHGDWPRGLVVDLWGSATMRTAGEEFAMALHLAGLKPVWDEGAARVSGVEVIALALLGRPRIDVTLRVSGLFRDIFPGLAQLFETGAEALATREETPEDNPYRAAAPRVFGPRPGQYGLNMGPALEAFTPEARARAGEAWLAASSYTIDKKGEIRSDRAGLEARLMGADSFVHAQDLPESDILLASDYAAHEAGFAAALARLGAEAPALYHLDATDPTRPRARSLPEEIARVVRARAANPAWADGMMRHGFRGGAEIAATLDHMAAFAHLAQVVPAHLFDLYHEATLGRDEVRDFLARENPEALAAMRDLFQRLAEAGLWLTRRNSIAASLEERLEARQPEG
# T1 sequence (D5AQ14 1-324 partner): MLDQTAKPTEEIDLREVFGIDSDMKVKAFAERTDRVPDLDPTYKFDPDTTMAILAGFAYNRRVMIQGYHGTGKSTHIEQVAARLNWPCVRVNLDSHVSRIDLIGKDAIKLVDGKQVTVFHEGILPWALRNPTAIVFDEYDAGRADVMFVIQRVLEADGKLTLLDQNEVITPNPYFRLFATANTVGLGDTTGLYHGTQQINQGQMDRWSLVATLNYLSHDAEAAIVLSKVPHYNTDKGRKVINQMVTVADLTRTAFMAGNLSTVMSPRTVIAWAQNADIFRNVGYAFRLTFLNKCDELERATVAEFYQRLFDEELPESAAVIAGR
# T1 sequence (D5AQ13 1-624 partner): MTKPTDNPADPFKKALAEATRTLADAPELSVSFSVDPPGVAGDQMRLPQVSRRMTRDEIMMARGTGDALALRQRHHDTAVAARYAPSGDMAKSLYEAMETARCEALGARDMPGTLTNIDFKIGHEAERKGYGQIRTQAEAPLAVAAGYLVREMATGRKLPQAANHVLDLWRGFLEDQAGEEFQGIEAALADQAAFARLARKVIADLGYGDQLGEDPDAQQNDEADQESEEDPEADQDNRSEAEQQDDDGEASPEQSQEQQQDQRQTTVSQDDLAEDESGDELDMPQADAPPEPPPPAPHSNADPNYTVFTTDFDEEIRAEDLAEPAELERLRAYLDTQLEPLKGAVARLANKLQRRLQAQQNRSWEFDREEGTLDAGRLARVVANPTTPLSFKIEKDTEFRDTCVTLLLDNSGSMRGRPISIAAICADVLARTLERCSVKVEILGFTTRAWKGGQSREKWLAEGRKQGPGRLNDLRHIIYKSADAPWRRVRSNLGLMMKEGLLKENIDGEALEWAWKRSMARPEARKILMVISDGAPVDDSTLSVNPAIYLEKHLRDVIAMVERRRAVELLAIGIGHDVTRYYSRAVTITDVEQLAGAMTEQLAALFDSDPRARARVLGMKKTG
# Assay: UV-visible absorbance at […] nm, Co(II) chelation
# Type: biochemical
# Conditions: 10 uM HBAD, 100 uM total Co(II), 10 mM MgCl2, 5 mM ATP, 50 mM Hepes pH 7.0, 100 mM NaCl, 20-25 C, anaerobic
structure (smiles),measurement,value
"C/C1=C2N=C(/C=C3\N/C(=C(/C)C4=N[C@@](C)([C@@H]5N=C1[C@](C)(CCC(=O)O)[C@H]5CC(=O)O)[C@@](C)(CC(N)=O)[C@@H]4CCC(=O)O)[C@@](C)(CC(N)=O)[C@@H]3CCC(=O)O)C(C)(C)[C@@H]/2CCC(=O)O [HBAD, hydrogenobyrinic acid a,c-diamide]","UV-visible absorbance at 330 nm, Co(II) chelation","Metalation of HBAD to form cobyrinic acid a,c-diamide (CBAD) was followed by changes in the UV–visible absorbance"
